SMILES strings stand for the structures.

The test system of assay [1] is human LRRK2 G2019S or GFP expressing neuronal cultures. Description: QPCR-based mtDNA damage assay in primary midbrain neuronal cultures expressing human LRRK2 G2019S. To be noted: treated for 6 h. Type of assay: cell-based.
Text: Divide the normalized fluorescence values of each sample by the average normalized fluorescence value to get a ratio. […]
The test system of assay [2] is primary rat midbrain neurons. The assay is described as follows: Rotenone-induced mtDNA damage in primary midbrain neurons. Type of assay: cell-based. To be noted: pre-treated for 24 h before rotenone. As for the experimental part: (§1) This example describes how mitochondrial DNA damage was measured using a quantitative PCR-based assay as described above. The following reagents and protocol steps as disclosed in Sanders et al., Curr Protoc Toxicol. 2018 May; 76(1): e50, doi: 10.1002/cptx.50 and also in U.S. Pat. No. 11,001,890. The entire contents of said publication and patent are herein incorporated by reference.
(§2) Make a master mix if several samples are being run simultaneously. […]
(§3) Perform the PCR reaction using the PCR amplification profile is as follows for the large mitochondrial PCR product using the KAPA LongRange Hot Start kit: • Melting: 94° C. for 3 min • Amplification: the optimized number of cycles (26-28) of melting (94° C. for 15 sec) and annealing (66° C. for 12 min). • Final extension: To complete the profile and finalize amplification of products, perform a final extension for 10 min at 72° C. • Holding: Hold at 4° C. until products are removed for quantification. […]
(§4) (1) Add 10 μL of each PCR product and 90 μL of TE buffer to each of triplicate wells. […] Follow steps 6, 7 and 8 in Support Protocol 2 for fluorescent quantification of DNA.
(§5) Normalize large mitochondrial PCR product fluorescence values for copy number differences using the small mitochondrial PCR product. […] This is the normalized large mitochondrial fluorescence value (A. M. Furda, Bess, Meyer, & Van Houten, 2012a). […]

The subject of assay [3] is LRRK2 G2019S patient-derived cells. The assay is described as follows: mtDNA damage in LRRK2 G2019S patient-derived cells. Type of assay: cell-based, human. As to conditions: 24 h, 1 μM, n=3. The procedure: as §1, §2, §3, §4, §5
Assay [4] deals with ATM pSer1981. As to conditions: following treatment with the neurotoxin; cited from earlier work.
In assay [5] the test system is ATM pSer1981. The assay is described as follows: Western blot of ATM pSer1981 in HEK293 cells. Type of assay: cell-based, human. As to conditions: 100 nM, 24 h vs vehicle.

For `CCNc1nc(Nc2cc(F)c(C(=O)N3CCOCC3)cc2OC)ncc1C(F)(F)F` [GNE-7915], in assay [1], the “mtDNA damage (mtDNA integrity)” value is recorded as “restored mtDNA integrity”. For the same compound, in assay [2], the “prevention of rotenone induced mtDNA damage” value is reported as “able to prevent rotenone induced mtDNA damage”.

Turning to `C[C@@H]1CN(CC(=O)Nc2ccc3c(c2)Cc2cccc(-c4cc(=O)cc(N5CCOCC5)o4)c2S3)C[C@H](C)O1` [KU60019], in assay [3], the mtDNA damage result is on record as “sufficient to reverse mtDNA damage”.

Consider `C[n+]1ccc(-c2ccccc2)cc1` [MPP+], for which the “expression of ATM pSer1981” value in the assay with ATM pSer1981 [4] is given as “increased”.

For the compound `C=C(C)[C@H]1Cc2c(ccc3c2O[C@@H]2COc4cc(OC)c(OC)cc4[C@@H]2C3=O)O1` [rotenone], the “ATM pSer1981 (kinase active) level” value in the assay with ATM pSer1981 [5] is recorded as “increased ATM pSer1981 levels”; in the assay on ATM pSer1981 [5] (listed as Rotenone), “increased levels of ATM pSer1981”.
